The record followed here is patent US10059687B2, “Histone demethylase inhibitors” (CELGENE QUANTICEL RESEARCH, INC., priority 2015, dated 2018).

The structures appear in SMILES notation. Where only a bound is given, the exact number is not on record here.

Experiment [1] deals with JMJD2C (Homo sapiens (Human), UniProt Q9H3R0). Description: In vitro enzyme inhibition assay for JMJD2C activity (TR-FRET). Format: biochemical. An outline of the steps:
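Baculovirus-expressed JMJD2C (aa 2-372, 0.3 nM) was reacted for 30 min at RT with 300 nM biotin-H3K9me3 peptide and 2 μM α-ketoglutarate in HEPES pH 7.3 buffer containing Fe(II), ascorbate and TCEP. After EDTA stop, H3K9me2 product was detected by TR-FRET (Eu-anti-H3K9me2/streptavidin-APC). IC50 was fitted from the 665/615 ratio of 11-point dilutions.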
Background: Time-resolved FRET reads energy transfer from a long-lived donor to a nearby acceptor.

The target of experiment [2] is Jarid1B (Homo sapiens (Human), UniProt Q9UGL1). Description: In vitro enzyme inhibition assay for Jarid1B activity (TR-FRET). Format: biochemical.
In experiment [3] the test system is Jurkat cells. Briefly: Jurkat (T-ALL) cell line proliferation assay (Cell-MTS Assay). Format: cell-based. The following applies: Homo sapiens, 168 hr incubation, cell gives A/B enantiomer values, read-out: Cellular IC50. The source says:
The Jurkat (T-ALL) cell line proliferation assay (Cell-MTS Assay) is a colorimetric cellular assay to assess the ability of KDM small molecule inhibitors to effect the proliferation of the established human acute T cell leukemia cancer cell line Jurkat.
This Cell-MTS assay is a 7-day plate-based colorimetric assay which quantifies the amount of newly generated NADH in the presence and absence of test compound. These NADH levels are used as a proxy for the quantification of cancer cell proliferation.
The established cancer cell line Jurkat with a verified p53 mutation were purchased from American Type Culture Collection (ATCC) and routinely passaged according to ATCC published protocols. For routine assay these cells were seeded at a density of 10,000 cells per 96-well. 24 hr after plating, cells received an 11-point dilution of test compound with final concentration ranges from 10 μM to 0.15 nM. Cells were incubated in the presence of compound for 168 hr at 37° C., 5% CO2. At the end of this compound incubation period, 80 μl of media is removed and 20 μL of CellTiter 96® AQueous Non-Radioactive Cell Proliferation Assay solution (Promega) is added. The cells were incubated until the OD490 reached >0.6. IC50 values are calculated using the IDBS XLfit software package and include background subtracted OD490 values and normalization to DMSO controls. Cellular proliferation IC50 values are uploaded and archived using the Chem Biography Platform.

The test system of experiment [4] is esophageal squamous cell carcinoma KYSE-150 cells. Description: Cellular IC50 in KYSE-150 cells. Format: cell-based. The settings on record: Homo sapiens, one class given per A and B pair. An excerpt:
Table 7 provides IC50 values of various compounds disclosed herein, tested in cellular human esophageal squamous cell carcinoma KYSE-150 cells: […]

The target of experiment [5] is JMJD3 (Homo sapiens, UniProt O15054). Briefly: In vitro enzyme inhibition assay for JMJD3 activity (TR-FRET). Format: biochemical. In outline: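 Baculovirus-expressed JMJD3 (AA1043-end), 5 nM, with 250 nM biotin-H3K27me3 peptide and 0.4–2 μM α-ketoglutarate in 50 mM HEPES pH 7.3, 50 μM ascorbate, 5 μM Fe(II); 30 min at RT. EDTA-stopped; H3K27me2 product detected by TR-FRET (Eu-antibody/streptavidin-APC), 665/615 ratio fitted to 11-point IC50.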

Setting [6] is: Table 4, cell gives A/B enantiomer values.
Setting [7] is: Table 5, one class given per A and B pair.

Chain of JMJD2C (Q9H3R0 2-372): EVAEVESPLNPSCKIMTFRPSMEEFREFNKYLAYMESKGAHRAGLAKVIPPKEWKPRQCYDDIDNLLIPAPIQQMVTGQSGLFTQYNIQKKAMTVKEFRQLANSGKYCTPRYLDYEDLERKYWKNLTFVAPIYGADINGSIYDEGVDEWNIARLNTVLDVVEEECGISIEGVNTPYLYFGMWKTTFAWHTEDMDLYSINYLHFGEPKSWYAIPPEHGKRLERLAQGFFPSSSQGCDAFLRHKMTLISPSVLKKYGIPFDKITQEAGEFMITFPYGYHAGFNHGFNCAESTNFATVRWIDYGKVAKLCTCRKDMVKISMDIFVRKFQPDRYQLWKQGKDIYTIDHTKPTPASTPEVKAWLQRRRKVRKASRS
Chain of Jarid1B (Q9UGL1 whole entry, species assumed): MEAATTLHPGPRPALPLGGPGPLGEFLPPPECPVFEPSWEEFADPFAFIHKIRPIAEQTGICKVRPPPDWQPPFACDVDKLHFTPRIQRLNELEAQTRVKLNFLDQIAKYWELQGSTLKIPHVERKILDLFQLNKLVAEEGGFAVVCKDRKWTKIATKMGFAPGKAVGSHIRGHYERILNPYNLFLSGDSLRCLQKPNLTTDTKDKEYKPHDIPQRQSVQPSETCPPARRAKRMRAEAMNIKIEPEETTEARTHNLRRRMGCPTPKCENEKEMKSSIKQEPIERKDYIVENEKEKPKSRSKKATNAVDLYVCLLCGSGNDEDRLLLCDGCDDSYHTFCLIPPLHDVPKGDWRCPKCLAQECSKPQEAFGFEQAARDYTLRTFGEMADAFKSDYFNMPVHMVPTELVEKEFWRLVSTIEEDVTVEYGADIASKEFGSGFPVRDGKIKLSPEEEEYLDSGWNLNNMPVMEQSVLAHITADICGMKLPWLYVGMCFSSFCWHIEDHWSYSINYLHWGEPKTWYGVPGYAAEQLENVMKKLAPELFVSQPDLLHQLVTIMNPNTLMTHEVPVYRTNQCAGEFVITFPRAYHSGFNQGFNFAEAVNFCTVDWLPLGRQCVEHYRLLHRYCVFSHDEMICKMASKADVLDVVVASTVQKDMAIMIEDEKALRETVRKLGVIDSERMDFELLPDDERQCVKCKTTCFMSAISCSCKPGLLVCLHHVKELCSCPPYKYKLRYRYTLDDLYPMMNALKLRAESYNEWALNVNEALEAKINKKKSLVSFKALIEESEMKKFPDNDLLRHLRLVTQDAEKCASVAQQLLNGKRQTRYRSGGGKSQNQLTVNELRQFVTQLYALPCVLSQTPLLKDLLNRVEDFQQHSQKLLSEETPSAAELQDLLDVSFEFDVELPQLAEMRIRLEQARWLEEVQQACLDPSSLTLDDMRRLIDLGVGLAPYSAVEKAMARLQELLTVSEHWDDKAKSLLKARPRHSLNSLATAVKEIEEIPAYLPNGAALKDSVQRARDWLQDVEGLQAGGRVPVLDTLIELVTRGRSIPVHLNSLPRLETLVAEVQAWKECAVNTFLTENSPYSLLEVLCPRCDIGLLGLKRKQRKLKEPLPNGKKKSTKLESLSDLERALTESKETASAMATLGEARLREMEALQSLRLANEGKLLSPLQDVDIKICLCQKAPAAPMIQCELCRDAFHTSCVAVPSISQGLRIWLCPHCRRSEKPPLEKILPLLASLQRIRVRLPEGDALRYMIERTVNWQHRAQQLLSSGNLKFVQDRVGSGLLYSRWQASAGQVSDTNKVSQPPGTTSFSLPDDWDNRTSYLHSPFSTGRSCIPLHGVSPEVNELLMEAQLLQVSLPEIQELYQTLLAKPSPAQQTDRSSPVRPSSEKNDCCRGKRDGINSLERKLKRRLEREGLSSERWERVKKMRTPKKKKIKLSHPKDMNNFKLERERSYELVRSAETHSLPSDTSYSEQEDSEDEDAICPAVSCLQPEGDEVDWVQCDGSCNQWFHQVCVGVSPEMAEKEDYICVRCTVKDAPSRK

Regarding `Cc1ccc(N(C)c2ccc3c(c2)CCN[C@@H]3CNc2cnccc2C(=O)O)cc1` [Example 1A, 3-[({(1S)-6-[methyl(4-methylphenyl)amino]-1,2,3,4-tetrahydroisoquinolyl}methyl)amino]pyridine-4-carboxylic acid], the IC50 was 100 to 1000 nM in experiment [1] (setting [6]); 100 to 1000 nM in experiment [1] (setting [7]); at most 100 nM in experiment [2] (setting [6]); at most 100 nM in experiment [2] (setting [7]); at most 100 nM in experiment [3]; 1000 to 10000 nM in experiment [4].

With `Cc1cc(OCC(F)(F)F)ccc1-c1ccc2c(c1)CCN[C@H]2CNc1cnccc1C(=O)O` [Example 2B, 3-[({(1R)-6-[2-methyl-4-(2,2,2-trifluoroethoxy)phenyl]-1,2,3,4-tetrahydroisoquinolyl)methyl)amino]pyridine-4-carboxylic acid], the concentration for half-maximal inhibition (IC50) in experiment [1] (setting [6]) is 1000 to 10000 nM; in experiment [1] (setting [7]), 1000 to 10000 nM; in experiment [5] (setting [6]), 1000 to 10000 nM; in experiment [5] (setting [7]), 1000 to 10000 nM; in experiment [2] (setting [6]) it was at most 100 nM; in experiment [2] (setting [7]), at most 100 nM. Also, the results for the concentration for half-maximal inhibition (IC50) in experiment [3] and in experiment [4] were 100 to 1000 nM and over 10000 nM, respectively.

`Cc1cc(OCC(F)(F)F)ccc1-c1ccc2c(c1)CCN[C@@H]2CNc1cnccc1C(=O)O` [Example 2A, 3-[({(1S)-6-[2-methyl-4-(2,2,2-trifluoro-ethoxy)phenyl]-1,2,3,4-tetrahydro-isoquinolyl}methyl)amino]pyridine-4-carboxylic acid]: the IC50 in experiment [1] (setting [6]) is 1000 to 10000 nM; in experiment [1] (setting [7]), 1000 to 10000 nM; in experiment [5] (setting [6]) it was 1000 to 10000 nM; in experiment [5] (setting [7]) it was 1000 to 10000 nM; in experiment [2] (setting [6]) it was at most 100 nM; in experiment [2] (setting [7]), at most 100 nM. Further, the IC50 in experiment [3] was 100 to 1000 nM; in experiment [4] it was over 10000 nM.

As a reminder, the IC50 is the concentration that inhibits the measured activity by half.
